Consider five compounds from ChEMBL document CHEMBL3593223, “Neolignans with a Rare 2-Oxaspiro[4.5]deca-6,9-dien-8-one Motif from the Stem Bark of Cinnamomum subavenium” (J Nat Prod, 2015).

Data set [1] is described as follows: Cytotoxicity against mouse RAW264.7 cells assessed as survival rate at 200 uM after 48 hrs by MTT assay in absence of LPS relative to control. Format: cell-based. The settings on record: read-out: Survival. On the technique in general: Formazan colour is commonly taken as a measure of viable cells.
A short description of data set [2]: Cytotoxicity against mouse RAW264.7 cells assessed as survival rate at 200 uM after 48 hrs by MTT assay in presence of LPS relative to control. The conditions noted are these: read-out: Survival. Format: cell-based.
Another data set concerns RAW264.7. Nature of the data set: Antiinflammatory activity in mouse RAW264.7 cells assessed as inhibition of LPS-induced nitric oxide production after 24 hrs by Griess assay. In kind it is functional, cell-based. The conditions noted are these: RAW264.7, 24 h. In general terms: The Griess reaction detects nitrite, a stable product of nitric oxide.

A word on the IC50: it is the midpoint of a concentration-inhibition curve. As to `COC1=CC2(C=C(OC)C1=O)[C@@H](CO)[C@H](c1ccc(O)c(OC)c1)O[C@H]2[C@H](O)CO`, the viability at 48 h, 200 µM in data set [1] stood at 99%; in data set [2], 90%. For the same compound, the IC50 with RAW264.7 worked out at 5.6 µM.
In the same order, the values of `COC1=CC2(C=C(OC)C1=O)[C@@H](CO)[C@H](c1cc(OC)c(O)c(OC)c1)O[C@H]2[C@H](O)CO` are 102%, 111% and 4.3 µM.
In the same order, the values of `COC1=CC2(C=C(OC)C1=O)[C@H](CO)[C@@H](c1cc(OC)c(O)c(OC)c1)O[C@@H]2[C@@H](O)CO` are 101%, 109% and 15.1 µM.
On the same counts, the results for `C[C@@H]1C[C@H]2[C@@H]3CCC4=CC(=O)C=C[C@]4(C)[C@@]3(F)[C@@H](O)C[C@]2(C)[C@@]1(O)C(=O)CO` [DEXAMETHASONE] are 91%, 100% and 0.63 µM.
`COC1=CC2(C=C(OC)C1=O)[C@H](CO)[C@@H](c1ccc(O)c(OC)c1)O[C@@H]2[C@@H](O)CO`: the values for the viability at 48 h, 200 µM in data set [1] and in data set [2] were 98% and 104%, respectively. For the same compound, the half-inhibitory concentration (IC50) with RAW264.7 turned out to be 17.9 µM.
